Assay results published in patent US11958815B1, “N′-(2-(5-phenyl-1,3,4-oxadiazol-2-ylthio)acetoxy)-2-naphthimidamide as antimicrobial compound” (KING FAISAL UNIVERSITY, priority 2023, dated 2024).

Tests used:
[1] = system: Pseudomonas aeruginosa; assay: Agar plate disc-diffusion, antibacterial activity by inhibition zone; conditions: nutrient agar, 37° C., 48 hours, DMSO zone subtracted
[2] = system: Chrysosporium keratinophilum; assay: Agar plate disc-diffusion, antifungal activity by inhibition zone; conditions: Sabouraud's dextrose agar, 37° C., 72 hours, DMSO zone subtracted
[3] = system: Escherichia coli; assay: Agar plate disc-diffusion, antibacterial activity by inhibition zone; conditions: nutrient agar, 37° C., 48 hours, DMSO zone subtracted
[4] = system: Staphylococcus aureus; assay: as above; conditions: nutrient agar, 37° C., 48 hours, DMSO zone subtracted
[5] = system: Aspergillus flavus; assay: Agar plate disc-diffusion, antifungal activity by inhibition zone; conditions: Sabouraud's dextrose agar, 37° C., 72 hours, DMSO zone subtracted
[6] = system: Bacillus cereus; assay: Agar plate disc-diffusion, antibacterial activity by inhibition zone; conditions: nutrient agar, 37° C., 48 hours, DMSO zone subtracted
[7] = A = concentration of comp. = 10,000 μL
[8] = B = concentration of comp. = 30.000 μL
[9] = C = concentration of comp. = 50,000 μL

Structure (SMILES): N/C(=N\OC(=O)CSc1nnc(-c2ccccc2)o1)c1ccc2ccccc2c1 [Comp 3, N′-(2-(5-phenyl-1,3,4-oxadiazol-2-ylthio)acetoxy)-2-naphthimidamide]
- inhibition zone, Pseudomonas aeruginosa [1, 7]: 27 mm
- inhibition zone, Pseudomonas aeruginosa [1, 8]: 34 mm
- inhibition zone, Pseudomonas aeruginosa [1, 9]: 40 mm
- inhibition zone, Chrysosporium keratinophilum [2, 7]: 31 mm
- inhibition zone, Chrysosporium keratinophilum [2, 8]: 39 mm
- inhibition zone, Chrysosporium keratinophilum [2, 9]: 45 mm
- inhibition zone, Escherichia coli [3, 7]: 31 mm
- inhibition zone, Escherichia coli [3, 8]: 39 mm
- inhibition zone, Escherichia coli [3, 9]: 48 mm
- inhibition zone, Staphylococcus aureus [4, 7]: 25 mm
- inhibition zone, Staphylococcus aureus [4, 8]: 31 mm
- inhibition zone, Staphylococcus aureus [4, 9]: 40 mm
- inhibition zone, Aspergillus flavus [5, 7]: 26 mm
- inhibition zone, Aspergillus flavus [5, 8]: 29 mm
- inhibition zone, Aspergillus flavus [5, 9]: 39 mm
- inhibition zone, Bacillus Cereus [6, 7]: 28 mm
- inhibition zone, Bacillus Cereus [6, 8]: 32 mm
- inhibition zone, Bacillus Cereus [6, 9]: 40 mm
